The results in this text go back to US20070274915A1, “Modulation Of Anergy And Methods For isolating Anergy-Modulating Compounds” (priority 2003, published 2007).

In test [1] the test system is D5 T cells. Put plainly: Ionomycin-induced anergy in D5 Th1 cells, immunoblot of signaling proteins and E3 ligases. In kind it is cell-based, murine. Here is the method:
(§1) The murine D5 (Ar-5) Th1 cell clone was grown as previously described (F. Macian et al., Cell 109, 719-31 (2002). CD4+ cells were isolated from spleen and lymph nodes of DO11.10 or 2B4 TCR-transgenic mice using positive selection with anti-CD4 magnetic beads (Dynal), and differentiated into Th1 cells for 2 weeks using standard protocols (id.). Anergy was induced by treating primary Th1 cells or the D5 Th1 clone (10^6 cells/ml) with 1 μM ionomycin for 16 hours, Cyclosporin A was included in some experiments at a concentration of 2 μM. The cells were then washed to remove the ionomycin and incubated at higher cell density (˜3×10^6 cells/ml) for 1-2 hours at 37 C. In the experiment of FIG. 14, a high-density incubation step was included. The extent of anergy induction was evaluated by intracellular cytokine staining or in standard proliferation assays (id.). Restimulation of D5 cells was done with 1 μg/ml anti-CD3 with or without 2.5 μg/ml anti-CD28 or with 20 nM PMA or 1 μM Ionomycin or both. HEK 293 cells were grown and transfected with Ca2+ phosphate using standard protocols.
D5 cells were extracted at 10^6 cells/10 μl in RIPA buffer (20 mM Tris pH 7.5, 250 mM NaCl, 1 mM DTT, 10 mM MgCl2, 1% Nonidet P-40, 0.1% SDS, 0.5% sodium deoxycholate) supplemented with protease and phosphatase inhibitors (1 mM PMSF, 25 μg/ml aprotinin, 25 μg/ml leupeptin, 10 mM NaF, 8 mM β glycerophosphate, 0,1 mM sodium ortho vanadate). For assessing protein levels in cell extracts, 5-30 μl of RIPA extracts were separated on 9-12% SDS-polyacrylamide gels, and proteins were electrotransferred onto nitrocellulose membranes. For immunoprecipitations, 500-1000 μl of RIPA cell extracts were used. For coimmunoprecipitations from lysates of transfected HEK 293 cells, cells from one 10 cm dish were lysed in 50 mM Hepes pH 7.5, 100 mM NaCl, 1 mM EDTA, 0,5% NP-40 and 10% glycerol including phosphatase and protease inhibitors. Lysates were precleared with either protein A- or protein G-Sepharose, immunoprecipitations were performed for 4 hrs and the resulting precipitates were washed 3-4 times with the buffer used for cell extraction. Immunoblots were performed with antibody solutions in 5% milk and TBS (10 mM TrisCl (pH 8.0), 150 mM NaCl) and washes were done in TBS containing 0.05% Tween-20.
Background: Immunoblotting shows a protein as a band on a membrane.

Test [2] has as its system TH1 cells from 5CC7 TCR-transgenic mice. Put plainly: Immune synapse formation by 5CC7 TCR-transgenic TH1 cells on lipid bilayers. It counts as cell-based. To be noted: 5CC7 T cells pretreated with ionomycin for 16 h. Here is the method:
(§2) Planar bilayers were prepared essentially as described in (Grakoui et al., Science 285, 221-7 (1999)), except that the MCC88-103 peptide was loaded on the GPI-IEk for 24 hours. Bilayers were prepared using Oregon green labeled GPI-IEk and Cy5 labeled GPI-ICAM-1 in parallel plate flow cells (Bioptechs). Control and ionomycin treated cells were injected into the flow cell at a density of 10^6 cells/ml. Areas of bilayers where cells were forming synapses were imaged using FITC and Cy5 optics on an Olympus IX-70 inverted microscope equipped with a amamtsu ORCA-ER digital camera and a Xenon-arc lamp as a light source for fluorescence microscopy. […] Bright field, interference reflection (IRM) and fluorescence images were collected and processed using the Metamorph software. The background from the fluorescence images was subtracted using the produce background correction image function which is based on median filtering to subtract background that is nonuniform. Percentage of cells adhering were analyzed by comparing bright field and IRM images.
The formation of immune synapses was evaluated as described for the experiments shown in FIG. 19, with TH1 cells from wild-type or Cblb−/− 5CC7 TCR-transgenic mice and lipid bilayers displaying ICAM-1 and I-Ek pigeon cytochrome C (PCC) molecules. […] Below the image series is a histogram that quantifies the imaging results. […]

The subject of test [3] is HEK 293 cells. Description: PLC-γ1 ubiquitination in transfected HEK 293 cells. In kind it is cell-based. To be noted: 3 μM ionomycin for 30 min. The procedure: FIG. 17C is a chart and a set of immunoblots illustrating that Itch induces mono-, di- and poly-ubiquitination of PLC-γ1. HEK 293 cells were transfected in duplicate with expression vectors coding for HA-tagged ubiquitin, AU.1-tagged PLC-γ1 and/or myc-tagged Itch as indicated, and one culture of each pair was stimulated with 3 μM ionomycin for 30 min before cell extraction. Cell extracts were immunoprecipitated with AU.1 antibodies and analyzed for ubiquitin-modified or total immunoprecipitated PLC-γ1 (upper two panels), or were directly analyzed for PLC-γ1 and Itch expression by immunoblotting (lower two panels).
as §1, with “The extent of anergy induction was evaluated by intracellular cytokine staining or in standard proliferation assays (id.). Restimulation of D5 cells was done with 1 μg/ml anti-CD3 with or without 2.5 μg/ml anti-CD28 or with 20 nM PMA or 1 μM Ionomycin or both. HEK 293 cells were grown and transfected with Ca2+ phosphate using standard protocols.” left out

The test system of test [4] is D5 cells. Put plainly: Real-time RT-PCR of E3 ligase and PLC-γ1 mRNA levels in D5 cells. In kind it is cell-based, murine. To be noted: ionomycin-treated T cells. Here is the method:
Total RNA was prepared from untreated or ionomycin-pretreated D5 cells using Ultraspec reagent (Biotecx). cDNAs were synthesized from 2 μg of total RNA as template, using a cDNA synthesis kit (Invitrogen). Quantitative real time-PCR was performed in an I-Cycler (BioRad) using a SYBR Green PCR kit (Applied Biosystems). The sequences of the primer pairs are as follows:
Thermal cycling conditions were 95° C. for 5 min, then 40 cycles of 95° C., 65° C., and 72° C. for 30 sec each, terminating with a single cycle at 72° C. for 5 min. Signals were captured during the polymerization step (72° C.). A threshold was set in the linear part of the amplification curve, and the number of cycles needed to reach it was calculated for each gene. Melting curve analysis and agarose gel electrophoresis were performed to test the purity of the amplified bands. Normalization was performed by using L32 levels as an internal control for each sample. The ratio of mRNA levels in ionomycin-treated or ionomycin/CsA treated to untreated samples were determined.

In test [5] the test system is Th1 cells from BALB/c mice. Description: Pulse-chase of PKCθ in Th1 cells. In kind it is cell-based. The conditions noted are these: ionomycin 16 h, pulse-chase with plate-bound anti-CD3. Here is the method:
FIG. 21 is a set of autoradiograms illustrating calcineurin-dependent degradation of PKCθ in anergic T cells. Th1 cells from BALB/c mice were left untreated or pretreated with ionomycin for 16 h, pulse-labeled for 2 h with ^35S cysteine/methionine, washed and stimulated with plate-bound anti-CD3 antibody during the indicated chase periods. PKCθ immunoprecipitates were analyzed by autoradiography.
CD4 cells were isolated via dynal beads selection, cells were starved for 1 hr in cysteine/methionine free media and incubated for 2 hrs with 100 μCi/ml 35S-cysteine and -methionine. Cells were washed, resuspended in complete media and stimulated with 2 μg/ml anti-CD3 on crosslinking antibody coated plates. Cells were extracted in RIPA buffer and immunoprecipitations performed as described above. Immunoprecipitates were resolved on SDS-PAGE, that were treated with Enhance solution (NEN), dried and used for autoradiographs. Densitometric analysis was performed using IQ-Mac vs 1.2 software.

Test [6] has as its system AND T cell blasts. Put plainly: Stability of mature immunological synapses on lipid bilayers after phospholipase inhibitors. It counts as cell-based. The procedure: as §2
Experiments using phospholipase inhibitors were performed using AND T cell blasts (day 8). […] After 60 minutes, fields containing stable immunological synapses with central MHC clusters (green) and complete ICAM-1 rings (red) were imaged and the locations recorded using an automated stage and IPLab software. […]

Where a SMILES comes first, the peptide text is derived from it. The star is where a group is joined. Cbz = O=C(OCc1ccccc1)*

On to `C[C@H](CCC(=O)O)C[C@H](C)C[C@H](C)C(=O)/C=C(\O)[C@H](C)C[C@H](C)C/C=C/[C@@H](C)[C@@H](O)[C@@H](C)[C@@H](O)C[C@@H]1CC[C@@](C)([C@H]2CC[C@@](C)([C@@H](C)O)O2)O1` [ionomycin], for which the “PLC-γ1, PKCθ and RasGAP protein levels” value in test [1] (D5 T cells, ionomycin pretreatment followed by cell-cell contact, immunoblot) is “pronounced decrease”. The “increase in total protein ubiquitination” value in test [1] (ionomycin pretreatment, D5 T cells) is recorded as around 2 fold. Also, in test [1] (ionomycin-treated D5 cells), the Cbl-b protein induction entry is “even more highly induced”; the “Itch protein levels, increase” value is reported as around 3 fold; the Nedd4 protein levels entry was “no change”; the “Tsg101 protein levels, increase” value was around 3 fold. Moreover, in test [2], the synapse stability entry is reported as “synapse disorganization” and the “time to form the mature synapse on contact with the bilayer” value is recorded as below 5 min. In test [3], the PLC-γ1 ubiquitination result is recorded as “induced PLC-γ1 ubiquitination”. The “PLC-γ1 mRNA levels” value in test [4] is recorded as “remained constant”. Further, the “PKCθ turnover versus mock-treated T cells” value in test [5] was “significantly more rapidly”.
On to `CC(C)C[C@@H](C=O)NC(=O)[C@H](CC(C)C)NC(=O)[C@H](CC(C)C)NC(=O)OCc1ccccc1` [MG132] (Cbz-Leu-Leu-Leu-aldehyde), for which the PLC-γ1 degradation entry in test [1] (ionomycin 16 h, then incubation with 10 μM MG132) is “did not prevent”. Further, the “accumulation of a modified (mono-ubiquitinated) form of PKCθ” value in test [1] (only in anergized T cells, long exposure) is on record as “increased the accumulation”.
With `COc1ccc2c(c1)CC[C@@H]1[C@@H]2CC[C@]2(C)[C@@H](NCCCCCCN3C(=O)C=CC3=O)CC[C@@H]12` [U73122], in test [6] (3 independent experiments), the “U73122 concentrations at which the effects were observed” value is 0.1 to 1 µM. The “effect on established mature synapses” value in test [6] (added after mature synapses formed) was “disintegration of the outer LFA-1 ring”.
